Reference: article PMC8329300, “X-ray crystallography reveals molecular recognition mechanism for sugar binding in a melibiose transporter MelB” (Communications Biology, 2021)
Read-outs that look alike come from different tables or passages of the source.

Experiments:
D59C MelBSt [1] = biological target: T1, D59C MelBSt (Salmonella typhimurium, UniProt P30878, D59C); assay: biochemical; assay type: binding
T1 construct: Cys scanning mutagenesis for the full-length MelBSt; His10 (C); made in house; host or cells: E. coli DW2
T1 sequence (P30878 whole entry D59C): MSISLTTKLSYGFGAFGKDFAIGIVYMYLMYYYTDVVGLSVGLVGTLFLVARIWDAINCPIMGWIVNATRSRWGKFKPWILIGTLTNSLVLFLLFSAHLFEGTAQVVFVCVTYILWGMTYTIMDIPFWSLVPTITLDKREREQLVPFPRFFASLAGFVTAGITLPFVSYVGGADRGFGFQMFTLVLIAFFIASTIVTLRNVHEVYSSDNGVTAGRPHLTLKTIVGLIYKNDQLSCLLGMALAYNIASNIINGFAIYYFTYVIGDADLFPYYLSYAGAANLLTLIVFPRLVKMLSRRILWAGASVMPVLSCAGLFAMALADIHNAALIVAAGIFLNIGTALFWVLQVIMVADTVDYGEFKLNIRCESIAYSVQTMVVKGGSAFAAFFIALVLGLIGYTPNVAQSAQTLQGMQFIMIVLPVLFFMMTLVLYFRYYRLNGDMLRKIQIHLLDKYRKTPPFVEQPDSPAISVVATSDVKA
Description: All ITC ligand-binding assays were performed with the TA Instruments (Nano-ITC device) at 25 °C. In a typical experiment, the titrand (MelBSt) in the ITC sample cell was titrated with the specified titrant (placed in the Syringe) by an incremental injection of 2-µL aliquots at an interval of 300 s at a constant stirring rate of 250 r.p.m. All samples were degassed using a TA Instruments Degassing Station (model 6326) for 15 min prior to the titration. Data processing was performed with the NanoAnalyze (version 3.6.0 software) provided with the ITC equipment. The normalized heat changes were subtracted from the heat of dilution elicited by last few injections, where no further binding occurred; the corrected heat changes were plotted against the molar ratio of titrant versus titrand. The values for association constant (Ka) value were determined by fitting the data with a one-site independent-binding model. At most cases, the binding stoichiometry (N) number was fixed to 1 since it is a known parameter, which can restrain the data fitting and achieve more accurate results. The dissociation constant Kd = 1/Ka.
Supplementary Figure 1. ITC measurements. ITC measurements were performed at 25 °C as described in Methods. (a) Binding thermography. For all tests, ligands and proteins are buffer- […]
(1 picture or pasted object on this page, not shown here) […]
matched. For melibiose binding measurements, a solution of 80 mM or 10 mM in the absence or presence of NaCl at 100 mM, was injected into the ITC sample cell containing the WT MelBSt at 80 μM without or with 100 mM NaCl, respectively. With the D59C mutant, […] was used. For α-NPG binding measurements, 0.5 mM or 0.4 mM solution was used to titrate the WT or D59C mutant at 50 μM in the absence or presence or 100 mM NaCl, respectively. For the Na+ or Li+ binding measurements, 5 mM or 2 mM solution was used to titrate WT MelBSt at 80 μM without or with 50 mM melibiose, respectively; 40 mM solutions was used to titrate the D59C mutant. (b) binding isotherm. Curve fit was carried out with a one-site independent-binding model included in the NanoAnalyze software (version 3.6.0).

D59C MelBSt [2] = biological target: T1, D59C MelBSt; assay: Melibiose fermentation on MacConkey agar (DW2 transformants); assay type: cell-based; conditions: 30 mM melibiose, 37 °C
Description: Fig. 1 Functional characterizations. a [^3H] Melibiose transport time course with intact cells. E. coli DW2 strain (melB^−, lacZ^−Y^−) expressed with the WT, D59C, or D59A MelBSt mutants were subjected to [^3H]melibiose active transport assay at 0.4 mM and 10 mCi/mmol in the presence of 20 mM or 100 mM NaCl or LiCl by a fast filtration method. Inset, melibiose fermentation assay. Transformants with DW2 strain were plated on MacConkey agar plates containing 30 mM melibiose as the sole carbohydrate source and pH sensor neutral red, and incubated at 37 °C for 16–18 h before imaging. Number of tests = 3, from different batch of cells or duplicate measurements from same batch of sample. b Ligand binding by Trp→dansyl galactoside (D^2G) FRET assay. Purified proteins at 1 μM concentration in 20 mM Tris-HCl, pH 7.5, 100 mM CholCl, 10% glycerol, and 0.03% UDM were subjected to steady-state fluorescence measurements as described in Methods. On the time-trace, 1.8 μL of 1 mM D^2G at 10 μM was added into 180 μL of protein solutions at 1-min point, followed by supplying 10 μL of 5 mM DDMB or 5 mM α-NPG to displace the bound D^2G. For testing Na^+ or Li^+ binding, they are added into the solution before displacement with the second sugar. The structure of DDMB or α-NPG is shown in a chair form, and the carbon positions are labeled. Glycosidic bonds are indicated by arrows. […]

Compound	Kd (D59C MelBSt [1]; Apo, ITC 25 °C, read-out: Kd of substrate binding, Melibiose)	Kd (D59C MelBSt [1]; Na+ (100 mM), ITC 25 °C, read-out: Kd of substrate binding, Melibiose)	Kd lower than that of WT (D59C MelBSt [1]; apo state, melibiose binding)	Kd (D59C MelBSt [1]; read-out: Kd value for melibiose binding)	melibiose fermentation (colony colour) (D59C MelBSt [2])	Kd (D59C MelBSt [1]; Kd of substrate binding, α-NPG, Apo, ITC 25 °C)	Kd (D59C MelBSt [1]; Kd of substrate binding, α-NPG, Na+ (100 mM), ITC 25 °C)	increased affinity versus WT (D59C MelBSt [1]; apo D59C mutant)
OC[C@H]1O[C@H](OCC2O[C@@H](O)[C@H](O)[C@@H](O)[C@@H]2O)[C@H](O)[C@@H](O)[C@H]1O (some centres unmarked) [Melibiose]	4.66 ± 0.1 mM	4.96 ± 0.11 mM	2 fold	6 mM	normal melibiose fermentation with red colonies			
O=[N+]([O-])c1ccc(OC2OC(CO)C(O)C(O)C2O)cc1 [α-NPG, 4-nitrophenyl-α-D-galactopyranoside]						0.0105 ± 0.00134 mM	0.01197 ± 9e-05 mM	about 4 fold
